This note sets out measurements from US12281122B1, “PI3K inhibitors” (Cogent Biosciences, Inc., priority 2023, dated 2025).

Some results are limits rather than exact numbers.

Experiment [1] concerns T47D (PI3Kα-H1047R) cell line. Nature of the experiment: HTRF phospho-AKT(S473) cell assay in T47D cells. The class given is cell-based, human. Put shortly: (§1)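 pAKT(S473) in lysates read by HTRF after a 2 h, 37 °C compound exposure (12-point 1:3 series, max 0.5% DMSO). SKBR3 (wild type, top 10 μM) received 70 ng/ml PDGF-BB during the final 15 min; T47D (H1047R, top 5 μM) was unstimulated. IC50 values derived from the dose-response.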
A general note: TR-FRET usually uses a lanthanide donor and a delayed reading to cut background.

The subject of experiment [2] is SKBR3 (PI3Kα-Wild Type) cell line. In words: HTRF phospho-AKT(S473) cell assay in SKBR3 cells. In kind it is cell-based, human. Put shortly:
as §1

[3] abbreviates: Homo sapiens; HTRF phospho-AKT(S473), T47D (PI3Kα-H1047R) cells, 2 hours compound incubation.
Setting [4] is: Homo sapiens, SK-BR-3; HTRF phospho-AKT(S473), SKBR3 (PI3Kα-Wild Type) cells, 2 hours compound incubation, PDGF-BB stimulated.
Setting [5] is: Homo sapiens; T47D (PI3Kα-H1047R) cells, HTRF phospho-AKT(S473), 2 hours compound incubation.
The mark [6] stands for this setting: Homo sapiens, SK-BR-3; SKBR3 (PI3Kα-Wild Type) cells, HTRF phospho-AKT(S473), 2 hours compound incubation, PDGF-BB stimulated.

Turning to `Cc1cc([C@@H](C)Nc2ccc(Cl)nc2C(=O)NS(C)(=O)=O)c2nc(N3CCC(c4ncn(C(C)C)n4)CC3)n(C)c(=O)c2c1` [Compound 550, (R)-6-chloro-3-((1-(2-(4-(1-isopropyl-1H-1,2,4-triazol-3-yl)piperidin-1-yl)-3,6-dimethyl-4-oxo-3,4-dihydroquinazolin-8-yl)ethyl)amino)-N-(methylsulfonyl) picolinamide], the half-inhibitory concentration (IC50) in experiment [1] (setting [3]) was 0.25 to 0.5 µM; in experiment [2] (setting [4]), at least 5 µM.
On the same counts, the results for `COc1cc([C@H]2[C@@H]3CN(c4nc5c([C@@H](C)Nc6ccc(Cl)nc6C(=O)NS(C)(=O)=O)cc(C)cc5c(=O)n4C)C[C@@H]32)c(F)cn1` [Compound 479, 6-chloro-3-(((R)-1-(2-((1R,5S,6S)-6-(5-fluoro-2-methoxypyridin-4-yl)-3-azabicyclo[3.1.0]hexan-3-yl)-3,6-dimethyl-4-oxo-3,4-dihydroquinazolin-8-yl)ethyl)amino)-N-(methylsulfonyl) picolinamide] are 0.25 to 0.5 µM and at least 5 µM.
With `Cc1cc([C@@H](C)Nc2ccc(Cl)nc2C(=O)NS(C)(=O)=O)c2nc(N3C[C@@H]4[C@H](C3)[C@H]4c3ccn(C(C)C)n3)n(C)c(=O)c2c1` [Compound 395, 6-chloro-3-(((R)-1-(2-((1R,5S,6R)-6-(1-isopropyl-1H-pyrazol-3-yl)-3-azabicyclo[3.1.0]hexan-3-yl)-3,6-dimethyl-4-oxo-3,4-dihydroquinazolin-8-yl)ethyl)amino)-N-(methylsulfonyl) picolinamide], the figures for the IC50 in experiment [1] (setting [5]) and in experiment [2] (setting [6]) were 0.25 to 0.5 µM and at least 5 µM, respectively.
Turning to `Cc1cc([C@@H](C)Nc2ccc(Cl)nc2C(=O)NS(C)(=O)=O)c2nc(C3(c4ccccc4)CC3)n(C)c(=O)c2c1` [Compound 830, (R)-6-chloro-3-((1-(3,6-dimethyl-4-oxo-2-(1-phenylcyclopropyl)-3,4-dihydroquinazolin-8-yl)ethyl)amino)-N-(methylsulfonyl) picolinamide], the IC50 in experiment [1] (setting [3]) is 0.25 to 0.5 µM; in experiment [2] (setting [4]) it was at least 5 µM.
In the case of `Cc1ccn(C2CCN(c3nc4c([C@@H](C)Nc5ccc(Cl)nc5C(=O)NS(C)(=O)=O)cc(C)cc4c(=O)n3C)CC2)c(=O)c1` [Compound 753, (R)-6-chloro-3-((1-(3,6-dimethyl-2-(4-(4-methyl-2-oxopyridin-1(2H)-yl)piperidin-1-yl)-4-oxo-3,4-dihydroquinazolin-8-yl)ethyl)amino)-N-(methylsulfonyl) picolinamide], the IC50 in experiment [1] (setting [3]) was below 0.25 µM; in experiment [2] (setting [4]), 1 to 5 µM.
Consider `Cc1cc([C@@H](C)Nc2ccc(Cl)nc2C(=O)NS(C)(=O)=O)c2nc(N3CCC(n4cc(-c5cnc(C)cn5)cn4)CC3)n(C)c(=O)c2c1` [Compound 270, (R)-6-chloro-3-((1-(3,6-dimethyl-2-(4-(4-(5-methylpyrazin-2-yl)-1H-pyrazol-1-yl)piperidin-1-yl)-4-oxo-3,4-dihydroquinazolin-8-yl)ethyl)amino)-N-(methylsulfonyl) picolinamide], for which the results for the IC50 in experiment [1] (setting [5]) and in experiment [2] (setting [6]) were below 0.25 µM and at least 5 µM, respectively.
On the same counts, the results for `Cc1cc([C@@H](C)Nc2ccc(Cl)nc2C(=O)NS(C)(=O)=O)c2nc(N3Cc4cnn(C(F)F)c4C3)n(C)c(=O)c2c1` [Compound 172, (R)-6-chloro-3-((1-(2-(1-(difluoromethyl)-4,6-dihydropyrrolo[3,4-c]pyrazol-5(1H)-yl)-3,6-dimethyl-4-oxo-3,4-dihydroquinazolin-8-yl)ethyl)amino)-N-(methylsulfonyl) picolinamide] are below 0.25 µM and 1 to 5 µM.
As to `COC(=O)NS(=O)(=O)c1nc(Cl)ccc1N[C@H](C)c1cc(C)cc2c(=O)n(C)c(N3Cc4ccc(F)cc4C3)nc12` [Compound 131, methyl (R)-((6-chloro-3-((1-(2-(5-fluoroisoindolin-2-yl)-3,6-dimethyl-4-oxo-3,4-dihydroquinazolin-yl)ethyl)amino)pyridin-2-yl)sulfonyl) carbamate], the 50% inhibitory concentration (IC50) in experiment [1] (setting [5]) was 0.5 to 1 µM; in experiment [2] (setting [6]), at least 5 µM.
On to `Cc1cc([C@@H](C)Nc2ccc(Cl)nc2C(=O)NS(C)(=O)=O)c2nc(N3CCC(c4ccc(N(C)C)nc4)CC3)n(C)c(=O)c2c1` [Compound 242, (R)-6-chloro-3-((1-(2-(4-(6-(dimethylamino)pyridin-3-yl)piperidin-1-yl)-3,6-dimethyl-4-oxo-3,4-dihydroquinazolin-8-yl)ethyl)amino)-N-(methylsulfonyl) picolinamide], for which the half-inhibitory concentration (IC50) in experiment [1] (setting [5]) is below 0.25 µM; in experiment [2] (setting [6]) it was 1 to 5 µM.
For `COc1ccn(C2CCN(c3nc4c([C@@H](C)Nc5ccc(Cl)nc5C(=O)NS(C)(=O)=O)cc(C)cc4c(=O)n3C)CC2)n1` [Compound 317, (R)-6-chloro-3-((1-(2-(4-(3-methoxy-1H-pyrazol-1-yl)piperidin-1-yl)-3,6-dimethyl-4-oxo-3,4-dihydroquinazolin-8-yl)ethyl)amino)-N-(methylsulfonyl) picolinamide], in that order: 0.25 to 0.5 µM and 1 to 5 µM.
As to `Cc1cc([C@@H](C)Nc2ccc(Cl)nc2C(=O)NS(C)(=O)=O)c2nc(N3[C@@H]4CC[C@H]3C[C@@H](n3ncc5ccccc53)C4)n(C)c(=O)c2c1` [Compound 696, 3-(((R)-1-(2-((1R,3R,5S)-3-(1H-indazol-1-yl)-8-azabicyclo[3.2.1]octan-8-yl)-3,6-dimethyl-4-oxo-3,4-dihydroquinazolin-8-yl)ethyl)amino)-6-chloro-N-(methylsulfonyl) picolinamide], the figures for the IC50 in experiment [1] (setting [3]) and in experiment [2] (setting [4]) were 0.5 to 1 µM and at least 5 µM, respectively.
`Cc1cc([C@@H](C)Nc2ccc(Cl)nc2C(=O)NS(C)(=O)=O)c2nc(N3CCC(c4n[nH]cc4F)CC3)n(C)c(=O)c2c1` [Compound 420, (R)-6-chloro-3-((1-(2-(4-(4-fluoro-1H-pyrazol-3-yl)piperidin-1-yl)-3,6-dimethyl-4-oxo-3,4-dihydroquinazolin-8-yl)ethyl)amino)-N-(methylsulfonyl) picolinamide]: the IC50 in experiment [1] (setting [5]) lay within 0.25 to 0.5 µM; in experiment [2] (setting [6]) it was 1 to 5 µM.
On to `Cc1cc([C@@H](C)Nc2ccc(Cl)nc2C(=O)NS(C)(=O)=O)c2nc(N3CCC[C@@H](c4ccccn4)C3)n(C)c(=O)c2c1` (relative stereo) [Compound 208, 6-chloro-3-(((R)-1-(3,6-dimethyl-4-oxo-2-((R*)-3-(pyridin-2-yl)piperidin-1-yl)-3,4-dihydroquinazolin-8-yl)ethyl)amino)-N-(methylsulfonyl) picolinamide], for which the IC50 in experiment [1] (setting [5]) is 0.25 to 0.5 µM; in experiment [2] (setting [6]), at least 5 µM.
Turning to `Cc1cc([C@@H](C)Nc2ccc(Cl)nc2C(=O)NS(C)(=O)=O)c2nc(N3CCC[C@@H](c4nccc(C)n4)C3)n(C)c(=O)c2c1` (relative stereo) [Compound 647, 6-chloro-3-(((R)-1-(3,6-dimethyl-2-((R*)-3-(4-methylpyrimidin-2-yl)piperidin-1-yl)-4-oxo-3,4-dihydroquinazolin-8-yl)ethyl)amino)-N-(methylsulfonyl) picolinamide], the results for the IC50 in experiment [1] (setting [3]) and in experiment [2] (setting [4]) were 0.25 to 0.5 µM and at least 5 µM, respectively.
Turning to `Cc1cc([C@@H](C)Nc2ccc(Cl)nc2C(=O)NS(C)(=O)=O)c2nc(N3CC[C@H](c4ccnc(C)n4)C3)n(C)c(=O)c2c1` (relative stereo) [Compound 599, 6-chloro-3-(((R)-1-(3,6-dimethyl-2-((R*)-3-(2-methylpyrimidin-4-yl)pyrrolidin-1-yl)-4-oxo-3,4-dihydroquinazolin-8-yl)ethyl)amino)-N-(methylsulfonyl) picolinamide], the IC50 was 0.25 to 0.5 µM in experiment [1] (setting [3]) and at least 5 µM in experiment [2] (setting [4]).

As usually defined, the IC50 is the concentration that inhibits the measured activity by half.
